Structures can show the parent of a compound that is named as a salt.
Each molecule was assayed on LNCaP cells expressing ARR2PB-FireflyLuc and CMV-RenillaLuc (assay: LNCaP ARR2PB-FireflyLuc reporter assay, antagonist mode). Details: Homo sapiens, LNCaP, 48 h, +0.5 nM DHT, 48 h at 37° C., read-out: LNCap Antagonist Archive: IC50.
Type: cell-based
Description: LNCaP cells expressing ARR2PB-FireflyLuc and CMV-RenillaLuc were treated with indicated concentrations of test compounds, enzalutamide (negative control), or DHT (positive control)+/−0.5 nM DHT for 48 h at 37° C. Fluorescent signals were read with the ImageXpress Micro Confocal System. Remaining activity (antagonist mode) was calculated as % Remaining Activity=100×[(ReadSample−LCave)/(HCave−LCave)] where HC is cells treated with 0.5 nM DHT only and LC is cells treated with 10 uM enzalutamide+0.5 nM DHT. Activation (agonist mode) was calculated as % Activation=100×[(ReadSample−LCave)/(HCave−LCave)] where HO is cells treated with 1 uM DHT and LC is cells treated with DMSO. Dose response curves and IC50 values were calculated using non-linear regression analysis in XLfit.
The designation “A” indicates an IC50 value of >10 μM, “B” indicates an IC50 value between 1 μM and 10 μM; “C” indicates an IC50 value between 100 nM and 1 μM; and “D” indicates an IC50 value of less than 100 nM.
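Also: IC50 bins in nM.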

Question: Which IC50 does the source give for O=C(c1cc2ccc(F)cc2[nH]1)N(c1ccc(F)cc1)C1CCOC1 (stereo not shown) [Example 85, 6-fluoro-N-(4-fluorophenyl)-N-(tetrahydrofuran-3-yl)-1H-indole-2-carboxamide] here?
Answer: < 100 nM

Question: For COCCN(C(=O)c1cc2cccc(Cl)c2[nH]1)c1ccc(C#N)c(F)c1 [Example 78, 7-Chloro-N-(4-cyano-3-fluorophenyl)-N-(2-methoxyethyl)-1H-indole-2-carboxamide], which IC50 is on record?
Answer: 1000 to 10000 nM

Question: How did the IC50 turn out when CN(C(=O)c1cc2ccc(F)cc2o1)c1ccc(F)cc1 [Example 39, 6-fluoro-N-(4-fluorophenyl)-N-methyl-1-benzofuran-2-carboxamide] was run?
Answer: 1000 to 10000 nM

Question: For CN(C(=O)c1cc2ccc(F)cc2[nH]1)c1ccc(C#N)cc1 [Example 17, N-(4-cyanophenyl)-6-fluoro-N-methyl-1H-indole-2-carboxamide], which IC50 is on record?
Answer: 1000 to 10000 nM

Question: Which IC50 does the source give for O=C(NC12CC(F)(C1)C2)c1cc2ccnc(Cl)c2n1CC1CC1 [Example 113, 7-chloro-1-(cyclopropylmethyl)-N-{3-fluorobicyclo[1.1.1]pentan-1-yl}pyrrolo[2,3-c]pyridine-2-carboxamide] here?
Answer: 100 to 1000 nM

Question: For CN(C(=O)c1cc2cccc(Cl)c2[nH]1)C12CC(C1)C2 [Example 82, N-[bicyclo[1.1.1]pentan-1-yl]-7-chloro-N-methyl-1H-indole-2-carboxamide], which IC50 is on record?
Answer: 100 to 1000 nM

Question: With Cc1nccc2cc(C(=O)NC34CCC(C3)C4)n(C)c12 [Example 152, N-(bicyclo[2.1.1]hexan-1-yl)-1,7-dimethyl-1H-pyrrolo[2,3-c]pyridine-2-carboxamide] as the molecule, how does the IC50 read?
Answer: 1000 to 10000 nM

Question: COCCN(C(=O)c1cc2cccc(Cl)c2[nH]1)c1ccc(C#N)cc1 [Example 55, 7-chloro-N-(4-cyanophenyl)-N-(2-methoxyethyl)-1H-indole-2-carboxamide] was tested. Which IC50 did it give?
Answer: 100 to 1000 nM

Question: With CN(C(=O)c1cc2cccc(Cl)c2[nH]1)C1CCNC1 (stereo not shown) [Example 40, 7-chloro-N-methyl-N-(pyrrolidin-3-yl)-1H-indole-2-carboxamide trifluoroacetic acid salt] as the molecule, how does the IC50 read?
Answer: > 10000 nM

Question: Which IC50 does the source give for CN(C(=O)c1cc2cccc(Cl)c2[nH]1)c1ccccn1 [Example 28, 7-chloro-N-methyl-N-(pyridin-2-yl)-1H-indole-2-carboxamide] here?
Answer: 1000 to 10000 nM

Question: Which IC50 does the source give for CN(C(=O)c1cc2cccc(Cl)c2[nH]1)C1CCCCC1 [Example 81, 7-chloro-N-cyclohexyl-N-methyl-1H-indole-2-carboxamide] here?
Answer: 1000 to 10000 nM

Question: How did the IC50 turn out when O=C(NC12CC(F)(C1)C2)c1cc2c(Cl)nccc2s1 [Example 158, 4-chloro-N-(3-fluorobicyclo[1.1.1]pentan-1-yl)thieno[3,2-c]pyridine-2-carboxamide] was run?
Answer: 100 to 1000 nM

Question: Which IC50 does the source give for CC1OCCC1N(C)C(=O)c1cc2cccc(Cl)c2[nH]1 (stereo not shown) [Example 80, 7-chloro-N-methyl-N-(2-methyloxolan-3-yl)-1H-indole-2-carboxamide] here?
Answer: 1000 to 10000 nM

Question: How did the IC50 turn out when CC(C)N(Cc1ccno1)C(=O)c1cc2ccc(F)cc2[nH]1 [Example 8, 6-fluoro-N-isopropyl-N-(1,2-oxazol-5-ylmethyl)-1H-indole-2-carboxamide] was run?
Answer: 1000 to 10000 nM

Question: How did the IC50 turn out when CC(C)N(Cc1ccon1)C(=O)c1cc2ccc(F)cc2[nH]1 [Example 5, 6-fluoro-N-isopropyl-N-(1,2-oxazol-3-ylmethyl)-1H-indole-2-carboxamide] was run?
Answer: 1000 to 10000 nM

Question: Which IC50 does the source give for CC(C)N(CC1CCCO1)C(=O)c1cc2ccc(F)cc2[nH]1 (stereo not shown) [Example 4, 6-fluoro-N-isopropyl-N-(oxolan-2-ylmethyl)-1H-indole-2-carboxamide] here?
Answer: > 10000 nM

Question: How did the IC50 turn out when Cn1c(C(=O)NC2CCC2)cc2ccnc(Cl)c21 [Example 143, 7-chloro-N-cyclobutyl-1-methylpyrrolo[2,3-c]pyridine-2-carboxamide] was run?
Answer: 100 to 1000 nM

Question: O=C(NC12CC(C1)C2)c1[nH]c2c(Cl)cccc2c1-c1ccccc1 [Example 108, N-[bicyclo[1.1.1]pentan-1-yl]-7-chloro-3-phenyl-1H-indole-2-carboxamide] was tested. Which IC50 did it give?
Answer: 1000 to 10000 nM

Question: For CN(C(=O)c1cc2ccnc(Cl)c2[nH]1)C12CC(F)(C1)C2 [Example 98, 7-chloro-N-[3-fluorobicyclo[1.1.1]pentan-1-yl]-N-methyl-1H-pyrrolo[2,3-c]pyridine-2-carboxamide], which IC50 is on record?
Answer: 100 to 1000 nM

Source: patent US12012398B2, “Bicyclic compounds as androgen receptor modulators” (NIDO BIOSCIENCES, INC., priority 2021, dated 2024)
